Columns and labels:
PTPN2 [1] = biological target: T1, PTPN2 (Mus musculus, UniProt Q06180); experiment: HiBiT PTPN2 degradation in B16F10.4 cells, 24 hours; assay type: cell-based
T1 construct: HiBiT; host or cells: B16F10.4
T1 sequence (Q06180 1-406): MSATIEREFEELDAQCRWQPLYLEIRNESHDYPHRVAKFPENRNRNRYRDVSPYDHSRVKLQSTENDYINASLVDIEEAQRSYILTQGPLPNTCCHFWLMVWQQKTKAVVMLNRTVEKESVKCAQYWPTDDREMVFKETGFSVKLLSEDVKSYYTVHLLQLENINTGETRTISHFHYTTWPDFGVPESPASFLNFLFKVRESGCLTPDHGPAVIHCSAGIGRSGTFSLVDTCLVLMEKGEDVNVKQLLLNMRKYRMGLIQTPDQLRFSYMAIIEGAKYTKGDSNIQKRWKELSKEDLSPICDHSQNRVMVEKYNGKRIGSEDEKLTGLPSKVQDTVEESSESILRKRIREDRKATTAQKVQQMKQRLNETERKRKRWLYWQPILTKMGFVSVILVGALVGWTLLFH
Procedure, shortened: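 PTPN2 degradation was measured via luminescence from the Nano-Glo® HiBiT Lytic Assay kit. Compounds were dispensed into 384-well plates at an 11-point half-log titration in duplicate, starting at 10 μM. Cells were added at 5000 per well and held at 37° C. with 5% CO2 for 24 hours. Untreated cells were the negative control and cells without lytic reagent the positive control. Lytic reagents were then added and luminescence read on an EnVision™ Multilabel Reader.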

PTPN2 [2] = biological target: T2, PTPN2 (Homo sapiens, UniProt P17706); experiment: HiBiT PTPN2 degradation in 293T.109 (HiBiT-PTPN2) cells, 24 hours; assay type: cell-based; settings: 293T.109 cells
T2 construct: expressed in transfected cells; host or cells: 293T.109 (HiBiT-PTPN2), derived from 293T WT (ATCC)
T2 sequence (P17706 1-415): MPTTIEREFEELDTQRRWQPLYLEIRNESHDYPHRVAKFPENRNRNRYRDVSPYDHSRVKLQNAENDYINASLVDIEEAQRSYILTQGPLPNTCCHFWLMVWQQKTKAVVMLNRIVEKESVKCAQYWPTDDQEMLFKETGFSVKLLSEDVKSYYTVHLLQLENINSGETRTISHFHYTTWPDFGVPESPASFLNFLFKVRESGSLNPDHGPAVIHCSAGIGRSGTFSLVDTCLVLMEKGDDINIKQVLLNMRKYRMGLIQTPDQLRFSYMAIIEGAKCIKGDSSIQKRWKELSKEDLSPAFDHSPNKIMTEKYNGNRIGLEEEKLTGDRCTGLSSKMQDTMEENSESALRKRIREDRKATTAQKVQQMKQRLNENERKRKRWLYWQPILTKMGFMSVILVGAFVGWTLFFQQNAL
Procedure, shortened: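 293T cells stably expressing N-terminal HiBiT-tagged PTPN2 were treated for 24 h at 37 °C with compound in an 11-point half-log series from 10 μM top concentration, in duplicate. Remaining HiBiT-PTPN2 was measured by lytic luminescence, with untreated cells as the negative control and wells without lytic reagent as the positive control.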

Row | SMILES | DC50 (PTPN2 [1]) | DC50 (PTPN2 [2])
1 | C[C@H]1CN(CC(=O)Nc2ccc3c(F)c(N4CC(=O)NS4(=O)=O)c(O)cc3c2)CCN1c1ccc2c(c1F)n(C)c(=O)n2C1CCC(=O)NC1=O (some centres unmarked) [Degrader 66] | ≥ 500 nM | 150 to 500 nM
2 | Cc1cc(-c2ccc3c(c2)n(C)c(=O)n3C2CCC(=O)NC2=O)ccc1CC(=O)Nc1ccc2c(F)c(N3CC(=O)NS3(=O)=O)c(O)cc2c1 (centres unmarked) [Degrader 79] | 50 to 150 nM | 50 to 150 nM
3 | Cn1c(=O)n(C2CCC(=O)NC2=O)c2ccc(-c3ccc([C@H](CO)C(=O)Nc4ccc5c(F)c(N6CC(=O)NS6(=O)=O)c(O)cc5c4)cc3)cc21 (some centres unmarked) [Degrader 137] | < 50 nM | 150 to 500 nM
4 | Cn1c(=O)n(C2CCC(=O)NC2=O)c2ccc([C@@H]3CN(CC(=O)Nc4ccc5c(F)c(N6CC(=O)NS6(=O)=O)c(O)cc5c4)CC[C@H]3F)cc21 (some centres unmarked) [Degrader 141] | 50 to 150 nM | < 50 nM
5 | Cn1c(=O)n(C2CCC(=O)NC2=O)c2ccc(Nc3cnn(CC(=O)Nc4ccc5c(F)c(N6CC(=O)NS6(=O)=O)c(O)cc5c4)c3)cc21 (centres unmarked) [Degrader 42] | 50 to 150 nM | 50 to 150 nM
6 | Cn1c(=O)n(C2CCC(=O)NC2=O)c2ccc(C3CCN(CC(=O)N4CCC(Oc5ccc6cc(O)c(N7CC(=O)NS7(=O)=O)c(F)c6c5)CC4)CC3(F)F)cc21 (centres unmarked) [Degrader 10] | 150 to 500 nM | 50 to 150 nM
7 | Cn1c(=O)n([C@H]2CCC(=O)NC2=O)c2ccc(N3CCC(CC(=O)Nc4ccc5c(F)c(N6CC(=O)NS6(=O)=O)c(O)cc5c4)CC3)cc21 [Degrader 20] | 50 to 150 nM | 50 to 150 nM
8 | Cn1c(=O)n(C2CCC(=O)NC2=O)c2ccc(N3CCCC(CC(=O)Nc4ccc5c(F)c(N6CC(=O)NS6(=O)=O)c(O)cc5c4)CC3)cc21 (centres unmarked) [Degrader 97] | 150 to 500 nM | 50 to 150 nM
9 | Cn1c(=O)n(C2CCC(=O)NC2=O)c2ccc(C3CCN(CCNC(=O)c4ccc5c(F)c(N6CC(=O)NS6(=O)=O)c(O)cc5c4)CC3(F)F)cc21 (centres unmarked) [Degrader 59] | 50 to 150 nM | 150 to 500 nM
10 | Cn1c(=O)n(C2CCC(=O)NC2=O)c2ccc(N3CCC(CNC(=O)Nc4ccc5c(F)c(N6CC(=O)NS6(=O)=O)c(O)cc5c4)CC3)cc21 (centres unmarked) [Degrader 89] | 50 to 150 nM | 50 to 150 nM
11 | Cn1c(=O)n(C2CCC(=O)NC2=O)c2cc(F)c(N3CCC(CCNC(=O)Nc4ccc5c(F)c(N6CC(=O)NS6(=O)=O)c(O)cc5c4)CC3)cc21 (centres unmarked) [Degrader 58] | 150 to 500 nM | < 50 nM
12 | CCn1c(=O)n(C2CCC(=O)NC2=O)c2ccc([C@H]3CCN(CC(=O)Nc4ccc5c(F)c(N6CC(=O)NS6(=O)=O)c(O)cc5c4)C[C@@H]3F)cc21 (single isomer, unassigned) [Degrader 130] | 150 to 500 nM | 150 to 500 nM
13 | Cn1c(=O)n(C2CCC(=O)NC2=O)c2ccc(N3CCC(O)(CC(=O)N4CC[C@H](c5ccc6cc(O)c(N7CC(=O)NS7(=O)=O)c(F)c6c5)C4)CC3)cc21 (some centres unmarked) [Degrader 115] | 150 to 500 nM | 150 to 500 nM
14 | Cn1c(=O)n(C2CCC(=O)NC2=O)c2ccc(N3CCC(CC(=O)Nc4ccc5c(F)c(N6CC(=O)NS6(=O)=O)c(O)cc5c4)CC3)cc21 (centres unmarked) [Degrader 147] | 150 to 500 nM | 150 to 500 nM
15 | Cn1nc(C2CCC(=O)NC2=O)c2ccc(Nc3ccc(CC(=O)Nc4ccc5c(F)c(N6CC(=O)NS6(=O)=O)c(O)cc5c4)cc3)cc21 (centres unmarked) [Degrader 48] | 50 to 150 nM | 50 to 150 nM
16 | Cn1c(=O)n(C2CCC(=O)NC2=O)c2ccc([C@@H]3CCN(CC(=O)Nc4ccc5c(F)c(N6CC(=O)NS6(=O)=O)c(O)cc5c4)C3)cc21 (some centres unmarked) [Degrader 124] | 150 to 500 nM | < 50 nM
17 | Cn1c(=O)n(C2CCC(=O)NC2=O)c2ccc([C@H]3CCCN(CC(=O)Nc4ccc5c(F)c(N6CC(=O)NS6(=O)=O)c(O)cc5c4)C3)cc21 (some centres unmarked) [Degrader 151] | 150 to 500 nM | 150 to 500 nM
18 | Cn1c(=O)n(C2CCC(=O)NC2=O)c2ccc(N3CCN(CC(=O)Nc4ccc5c(F)c(N6CC(=O)NS6(=O)=O)c(O)cc5c4)C(=O)C3)cc21 (centres unmarked) [Degrader 139] | ≥ 500 nM | 150 to 500 nM
19 | Cn1c(=O)n(C2CCC(=O)NC2=O)c2ccc(-c3ccc(NC(=O)Nc4ccc5c(F)c(N6CC(=O)NS6(=O)=O)c(O)cc5c4)cc3)cc21 (centres unmarked) [Degrader 73] | 50 to 150 nM | 50 to 150 nM

Source: patent US20240424111A1, “Degrader Compounds and Uses Thereof” (CALICO LIFE SCIENCES LLC, priority 2021, published 2024)
